Assay results from patent publication US20260263391A1, “COMPOUND AND USE THEREOF” (BENETHERA (SHAOXING) BIOTECHNOLOGY CO., LTD., priority 2023, published 2026).

Tests used:
Psoriasis mouse model [1] = experiment: IL-23 psoriasis mouse model, Compound 1 by subcutaneous or intradermal injection, symptom score; format: in vivo, mice; conditions: for symptom score: 4 consecutive days, scored on Day 6, scale 0-5
Experimental: (§1) Psoriasis mouse model was established by intradermal injection of recombinant […] (1 ng/20 μL PBS, per mouse per day for 4 consecutive days) into depilated mice on the back.
On Day 2 after modeling, the psoriasis model mice were randomly divided into 3 groups, with the same number of mice in each group, and divided into a model group, treatment group (the treatment group included a subcutaneous treatment group and an intradermal treatment group), with the model group as a control. […] The model group was injected with 20 μL of normal saline intradermally. All three groups were injected for 4 consecutive days. On Day 6, the symptoms of the model and treatment groups were scored.
(§2) The calculation rule for the number of days was: the number of days will be calculated from the end of modeling, which will be recorded as Day 0, followed by Day 1, Day 2, etc.
(§3) Scoring criteria: 0 points, no symptom; 1 point, skin erythema; 2 points, scattered scurf, 3 points, diffuse dandruff, 4 points, skin sclerosis; 5 points, erythroderma or death.

Psoriasis mouse model [2] = experiment: IL-23 psoriasis mouse model, comparative efficacy of Compound 1 ointment and Flecainide ointment, symptom score; format: in vivo, mice; conditions: 0.1% ointment; for therapeutic effect compared to the model group: 30 mg applied on the back for 4 consecutive days
Experimental: as §1
Each group was applied with different substances (as shown in Table 1) on the backs of the mice for 4 consecutive days. The symptoms of the model mice and the treatment group mice were scored from Day 1.
The calculation rule or the number of days was: the number of days will be calculated from the end of modeling, which will be recorded as Day 0, followed by Day 1, Day 2, etc.
The formulation and preparation method of Flecainide ointment can be referred to as Example 4, which differed from Example 4 only in that the main drug was replaced with an equivalent amount of Flecainide (wherein the mass concentration of flecainide in the flecainide ointment was 0.1%).
as §3

Psoriasis mouse model [3] = conditions: ointment 30 mg applied for 4 consecutive days, scored on Day 6; 0.01%, 0.1%, 0.2%, 0.5%, 1% tested
Experimental: as §1, §2, §3

Psoriasis mouse model [4] = conditions: 0.025% ointment, 200 mg applied on the back for 6 consecutive days
Experimental: Psoriasis mouse model was established by intradermal injection of recombinant TL-23 (1 ng/20 μL PBS, per mouse per day for 4 consecutive days) into depilated mice on the back.
Each group was applied with different substances (as shown in Table 3) on the backs of the mice for 6 consecutive days. From Day 1, the symptoms of the back skin of the model mice and the mice in the treatment group were scored every day.

[5] = 30 mg applied on the back, scale 0-5

CCCNCC(O)COc1ccccc1C(=O)CCc1ccccc1 (stereo not drawn) [Compound 1, propafenone]
therapeutic effect in dosing explorations (Psoriasis mouse model [1]; intracutaneous injections at 10 μg, 20 μg, 50 μg, 100 μg, 200 μg, 500 μg, 1 mg, 2 mg, 5 mg and 10 mg): had therapeutic effects
symptom score (Psoriasis mouse model [1]; intradermal injection on the back, 0.07 mg per mouse per day): ~2 points
therapeutic effect compared with the model group and the subcutaneous treatment group (Psoriasis mouse model [1]; intradermal injection, 0.07 mg per mouse per day, Day 6): significant therapeutic effect
symptom score (Psoriasis mouse model [1]; subcutaneous injection on the back, 0.07 mg per mouse per day): ~3 points
therapeutic effect compared to the model group (Psoriasis mouse model [2]): significant therapeutic effect
symptom score on Day 2 (Psoriasis mouse model [2]; [5]): 2 points
symptom score on Days 3 to 4 (Psoriasis mouse model [2]; 30 mg applied on the back, Days 3 to 4, scale 0-5): 3 points
symptom score on Days 7 and 8 (Psoriasis mouse model [2]; 30 mg applied on the back, Days 7 and 8, scale 0-5): 1 points
symptom score from Day 5 (Psoriasis mouse model [2]; 30 mg applied on the back, from Day 5, scale 0-5): ≤ 2 points
effective window dose of ointment (mass concentration) compared to the model group (Psoriasis mouse model [3]): 0.1%-0.5%

CCCNC[C@H](O)COc1ccccc1C(=O)CCc1ccccc1 [Compound 2, S-propafenone]
treatment effect (Psoriasis mouse model [4]): showed no treatment effect

CCCNC[C@@H](O)COc1ccccc1C(=O)CCc1ccccc1 [Compound 3, R-propafenone]
treatment effect (Psoriasis mouse model [4]): the treatment effect was more obvious

O=C(NCC1CCCCN1)c1cc(OCC(F)(F)F)ccc1OCC(F)(F)F (stereo not drawn) [Flecainide]
therapeutic effect compared to the model group (Psoriasis mouse model [2]): neither the Flecainide ointment nor the ointment alone had a therapeutic effect
symptom score on Day 2 (Psoriasis mouse model [2]; [5]): 3 points
symptom score on Days 2 to 7 (Psoriasis mouse model [2]; 30 mg applied on the back, Days 2 to 7, scale 0-5): 3 points
